Series [1] deals with ERβ positive breast cancer. In words: treatment success of Anastrozol and Letrozol compared with the topical prodrug (Example 2). It counts as in vivo, human. Conditions: for treatment success: patients, treated according to current treatment guidelines. As for the experimental part:
Studies were carried out on patients suffering from ERβ positive breast cancer.
First, the patients were treated with non-steroidal aromatase-inhibitors Anastrozol or Letrozol, the treatment was carried out according to the respective current treatment guidelines.
Then, said patients were treated with the pharmaceutical composition comprising the prodrug according to the present invention, that is, the prodrug (4-OHA) was applied topically to the affected breast.

Series [2] is described as follows: skin penetration on topical administration. Conditions: topical administration (ointment, lotion or cream). From the text: After topical administration, the compound(s) penetrate through the skin and concentrate in the fatty tissue.
Series [3] relates to ERβ positive breast cancer tumors. In words: shrinking of breast tumor tissue, topical prodrug (Example 1.1). As to conditions: patients, tumors max 2 cm, after three weeks of treatment. The series is classed as in vivo, human. As to the method: 1.1 Patients that were diagnosed (by mammography) with ERβ positive breast cancer tumors with a maximum size of 2 cm were treated with the pharmaceutical composition comprising the prodrug of the present invention: The prodrug was applied topically to the affected breast.

Series [4] concerns ER positive breast cancer. In words: shrinking of breast tumor, 2.5 wt.-% 4-OHA crème (Example 1.2). It counts as in vivo, human. As to conditions: 4 ml crème with 2.5 wt.-% 4-OHA, 2 times/day, after 3-5 weeks. As to the method: 1.2 Application of 4 ml of a crème (2 times/day) comprising 2.5 wt.-% 4-OHA to a breast suffering from an ER positive breast cancer.
The target of a further series is ERβ (Homo sapiens, UniProt Q92731). In words: binding affinity towards ERβ compared with ERα. As to conditions: fold higher for ERβ.
ERβ, sequence (Q92731 whole entry): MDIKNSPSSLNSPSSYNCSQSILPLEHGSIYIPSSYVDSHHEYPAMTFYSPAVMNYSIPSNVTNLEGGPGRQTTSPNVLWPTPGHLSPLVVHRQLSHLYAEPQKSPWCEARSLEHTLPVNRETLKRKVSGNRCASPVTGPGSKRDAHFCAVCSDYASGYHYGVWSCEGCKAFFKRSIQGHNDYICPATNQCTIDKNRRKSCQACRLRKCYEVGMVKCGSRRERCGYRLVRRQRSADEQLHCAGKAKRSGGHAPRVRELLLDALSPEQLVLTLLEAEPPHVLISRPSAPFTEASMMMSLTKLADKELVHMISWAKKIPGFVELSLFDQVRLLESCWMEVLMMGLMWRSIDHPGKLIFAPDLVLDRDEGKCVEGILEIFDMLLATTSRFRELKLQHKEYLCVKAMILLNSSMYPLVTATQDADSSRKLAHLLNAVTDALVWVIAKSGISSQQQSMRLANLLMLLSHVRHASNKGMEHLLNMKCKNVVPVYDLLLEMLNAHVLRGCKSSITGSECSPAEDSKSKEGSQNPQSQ
A further series deals with MDA-MB-231 cells. In words: inhibition of proliferation of MDA MB-231 cells. It counts as cell-based, human. As for the experimental part:
MDA-MB-231 cell line is a highly aggressive, invasive, and poorly differentiated epithelial human breast cancer cell line. It lacks estrogen receptor a (ERα) and progesterone receptor (PR) expression, as well as HER2 (human epidermal growth factor 2) amplification. MDA-MB-231 cell line is ERβ positive. It is a model cell line for triple negative breast cancer (TNBC) being ERβ positive.
Two different concentrations of MDA-MB-231 cells (1.0e3 and 2.5e3) were incubated with increasing concentrations of 4-OHT (K+; 0.5 μM; 1 μM; 5 μm; 10 μM; 20 μM). The cells were incubated for 6 days (d). Then, absorption at 492 nm was measured.

As a reminder, the inhibition is the change of the read-out against control, counted positive when it falls.

SMILES strings stand for the structures.

`N#Cc1ccc(C(c2ccc(C#N)cc2)n2cncn2)cc1` [Letrozol]: in series [1], the treatment success result is “not successful”.
On to `C[C@]12CCC(=O)C(O)=C1CC[C@@H]1[C@@H]2CC[C@]2(C)C(=O)CC[C@@H]12` [4-OHA, 4-hydroxyandrost-4-ene-3,17-dione], for which, in series [2], the skin penetration capabilities entry is given as “excellent skin penetration capabilities”. The tumor size result in series [3] is on record as “reduction in tumor size”. Besides, the “size of the tumor” value in series [4] was “significantly decreased”. The “patients with stabilisation of the disease over 6 months” value in series [1] (topical, after unsuccessful Anastrozol or Letrozol treatment) is 50%.
Turning to `CC(C)(C#N)c1cc(Cn2cncn2)cc(C(C)(C)C#N)c1` [Anastrozol], the treatment success result in series [1] is reported as “not successful”.
`C[C@]12CC[C@H]3[C@@H](CCC4C(O)C(O)CC[C@@]43C)[C@@H]1CC[C@@H]2O` (stereo partly drawn) [4-OHBA, 4-hydroxy-5-alpha-androstane-3-beta,17beta-diol]: the “affinity towards ERβ relative to affinity towards ERα” value on ERβ is reported as “about 10 times”.
On to `C[C@]12CC[C@H]3[C@@H](CCC4=C(O)C(=O)CC[C@@]43C)[C@@H]1CC[C@@H]2O` [4-OHT, 4-hydroxytestosterone], for which the “end concentration from which significant inhibition of cell growth takes place” value in the series with MDA-MB-231 cells (6 d incubation, absorption at 492 nm) is reported as “at least 5 μM/L”. Further, the inhibition at 5 µM in the series with MDA-MB-231 cells (Homo sapiens, MDA-MB-231, 144 h, 5 μM/L 4-OHT, cell concentration 1.0e3, 6 d, read-out: inhibition of cell growth) is roughly 50%. In addition, the inhibition at 20 µM in the series on MDA-MB-231 cells (Homo sapiens, MDA-MB-231, 144 h, 20 μM/L 4-OHT, 6 d, read-out: inhibition of cell growth) lay within 75 to 80%.

Source of the values: patent US20220054501A1, “[…] ESTROGEN-RECEPTOR b (ER.beta) POSITIVE BREAST TUMOR” (DCIC Biopharmaceutical Limited, priority 2018, published 2022).
